Series [1] concerns liver stage P. berghei ANKA. The class given is cell-based.
For series [2], the system named is P. berghei-luciferase sporozoites. Description: Mouse liver stage malaria model, parasite load in livers by in vivo imaging. Details: species or system C57BL/6 mice.
In a further series the test system is P. berghei. The experiment in a line: P. berghei parasitemia in mice after prophylactic treatment. Format: in vivo. The settings on record: single oral dose 100 mg/kg b.w. before infection.
The target in a further series is PfPK5 (Plasmodium falciparum, UniProt P61075). The class given is binding. The conditions noted are these: for Percent binding to PfPK5: 10 μM compound.
PfPK5, sequence (P61075 whole entry): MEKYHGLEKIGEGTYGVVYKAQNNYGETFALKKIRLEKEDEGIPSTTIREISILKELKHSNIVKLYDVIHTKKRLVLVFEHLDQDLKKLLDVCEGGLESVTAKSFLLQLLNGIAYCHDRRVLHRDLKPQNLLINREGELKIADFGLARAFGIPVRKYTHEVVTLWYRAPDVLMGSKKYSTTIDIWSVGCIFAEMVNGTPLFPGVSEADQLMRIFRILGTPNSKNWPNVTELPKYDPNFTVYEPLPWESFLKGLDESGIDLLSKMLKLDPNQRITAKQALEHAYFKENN
The conditions of series [3]: mouse, in vivo.
Another series deals with liver stage P. berghei. Description: Time course of liver stage parasite inhibition. The conditions noted are these: inhibitor added to infected liver cells.
For series [4], the system named is blood stage P. falciparum Dd2. Description: Blood stage malaria dose-response assay. The class given is cell-based. The conditions noted are these: read-out: Blood stage malaria IC50.
Another series concerns mTOR. The conditions noted are these: read-out: IC50 mTOR; cited from earlier work.
Series [5] concerns liver and blood stage P. berghei. The settings on record: cited from earlier work.

Structures are written as SMILES.

Take `Cc1nc(N)sc1-c1ccnc(Nc2ccc(N3CCOCC3)cc2)n1` [CYC-116]: the “Stage selectivity (blood stage IC50 vs liver stage IC50)” value in [1] was “inhibited liver stage P. berghei significantly more potently than blood stage P. falciparum”. Also, the “Parasite load in mouse livers vs vehicle” value in [2] (single oral dose 100 mg/kg b.w. before infection) is given as “significantly reduced parasite load in mouse livers”. Further, in the series on P. berghei, the “P. berghei parasitemia vs vehicle” value is on record as “reduction in P. berghei parasitemia”.

As to `CN1CC[C@H](c2c(O)cc(O)c3c(=O)cc(-c4ccccc4Cl)oc23)[C@H](O)C1` [Flavopiridol], the “Percent binding to PfPK5” value on PfPK5 is on record as above 50%.

With `CNC(=O)c1cc(Oc2ccc(NC(=O)Nc3ccc(Cl)c(C(F)(F)F)c3)cc2)ccn1` [Nexavar], the “Inhibition of parasite load in liver cells” value in [1] (low micromolar concentration) is “completely inhibited parasite load in liver cells”.

The term Kd denotes the concentration at which binding is half-saturated. As to `Cc1ccc([N+](=O)[O-])cc1S(=O)(=O)N(C)/N=C/c1cnc2ccc(Br)cn12` [PIK-75], the “Percent binding to PfPK5” value on PfPK5 is given as above 50%. In addition, the Kd on PfPK5 (read-out: Kd for PfPK5, competition binding, absence of ATP) was below 10000 nM.

Regarding `CC(C)(C)c1cnc(CSc2cnc(NC(=O)C3CCNCC3)s2)o1` [SNS-032], the “Parasite load in mouse livers vs vehicle” value in [2] (single oral dose 75 mg/kg b.w. before infection) is reported as “reduce parasite load in mouse livers”. For the same compound, in [3], the Toxicity to mice entry is on record as “relatively limited toxicity to mice”.

Consider `CCC(=O)N1CCN(c2ccc(-n3c(=O)ccc4cnc5ccc(-c6cnc7ccccc7c6)cc5c43)cc2C(F)(F)F)CC1` [Torin1], for which the “Parasite inhibition with 12-hour treatment” value in the series on liver stage P. berghei was “inhibit parasites with only a 12-hour treatment”.

One may read the IC50 as the midpoint of a concentration-inhibition curve. Consider `Nc1ccc(-c2ccc3ncc4ccc(=O)n(-c5cccc(C(F)(F)F)c5)c4c3c2)cn1` [Torin2], for which the IC50 was 40 nM in [1] (read-out: Liver stage malaria IC50, liver stage); 1 nM in series [4]; […] in the series with mTOR. The “Activity in mouse animal model” value in series [5] was “exhibits activity against liver and blood stage P. berghei”.

For `FC(F)c1nc2ccccc2n1-c1nc(N2CCOCC2)nc(N2CCOCC2)n1` [ZSTK474], the “Parasite inhibition with 12-hour treatment” value in the series with liver stage P. berghei is reported as “inhibit parasites with only a 12-hour treatment”.
